Results: patent publication US10882860B2, “Treatment of osteoarthritis” (Samumed, LLC, priority 2015, dated 2021)

System: rats that underwent ACLT combined with medial meniscectomy (MMx)
Assay: Efficacy of suspension in rat ACLT + pMMx model (OARSI score)
Assay type: in vivo
Conditions: for OARSI score: vehicle 4.43
Experimental: The efficacy of the compound of Formula (I) on increasing cartilage thickness was determined in rats that underwent anterior cruciate ligament transection (ACLT) combined with medial meniscectomy (MMx).
Female rats (10-12 weeks old) were subjected to surgical severing of the anterior cruciate, medial collateral and medial meniscotibial ligaments (ACLT+pMMx). One-week post-surgery, after cartilage was allowed to degenerate, the rats were injected intra-articular (IA) with a single dose of a suspension of the compound of Formula (I) (0.1 μg or 0.3 μg or 1 μg). On Days 30, 60, and 90 after injection, joint cartilage, bone and plasma was isolated. Compound from these tissues was extracted using acetonitrile-methanol (70:30) and analyzed for concentrations using LC-MS.
13 weeks after the surgery (12 weeks post-IA injection), knees were isolated, fixed in 10% formalin, decalcified, embedded in paraffin, and sectioned. Sections were stained with Safranin O-Fast Green and histologically evaluated by two blinded observers based on OARSI scoring system (Pritzker et al. (2006) Osteoarthr. Cartil. 14:13-29). The OARSI score measures cartilage matrix loss, fissures, subchondral bone remodeling and bone cyst formation.

## CC(C)CC(=O)Nc1cncc(-c2ccc3[nH]nc(-c4nc5c(-c6cccc(F)c6)cncc5[nH]4)c3c2)c1 [compound of Formula (I)]
Rat ACLT+pMMx, single IA 0.1 μg suspension, 12 weeks post-injection
  OARSI score: 3.13
Rat ACLT+pMMx, single IA 0.3 μg suspension, 12 weeks post-injection
  OARSI score: 2.15
Rat ACLT+pMMx, 0.1, 0.3 or 1 μg, 12 weeks post-injection
  total OARSI score (against vehicle): dose-dependent reduction
Rat ACLT+pMMx, single IA injection, 12 weeks post-injection
  knee histology (Safranin O-Fast Green): Increased cartilage thickness, decreased fissures, and subchondral bone remodeling
rat, 0.3 μg, after 12 weeks, FIG. 23B
  cartilage in safranin O-stained knee section vs control knee: increased cartilage
